Results from patent publication US20240216395A1, “19-NOR C3,3-DISUBSTITUTED C21 -N-PYRAZOLYL STEROID FOR USE IN TREATING MAJOR DEPRESSIVE DISORDER AND […]” (priority 2021, published 2024).

Key:
[1] = test system: nondependent, recreational users of CNS depressants; test: Abuse potential main study, treatment phase: subjective VAS measures (Drug Liking, Overall Drug Liking, Take Drug Again, High, Good/Bad/Any Drug Effects, Alertness/Drowsiness, Drug Similarity)
[2] = test system: nondependent, recreational users of CNS depressants; test: Abuse potential main study, treatment phase: TEAEs; format: in vivo, human; details: treatment phase
Protocol: The main study consisted of 4 phases (FIG. 30B). The screening phase was a 1-day visit occurring within 21 days of the beginning of the qualification phase. The qualification phase was a 4-day, inpatient period to ensure participants could discriminate between alprazolam (active comparator) and placebo, and that they could tolerate the alprazolam 2-mg doses. Participants received single-oral doses of alprazolam 2 mg and placebo in a crossover manner 24 hours apart, and if they could discriminate between the two medications, they continued to the treatment phase. The treatment phase was a double-blind, active- and placebo-controlled, 6-way crossover design where participants were randomized equally to a single oral dose of 1 of 6 treatments: placebo, alprazolam (1.5 and 3 mg), and Compound (1) (30, 60, and 90 mg). The Compound (1) doses were based on the results from the first part, dose selection, and treatments were separated by 7 days. The follow-up phase was a 1-day visit occurring 7 (2) days after the treatment phase.
Safety and tolerability endpoints included the frequency and severity of AEs and SAEs, the change from baseline in clinical laboratory assessments, vital signs, and ECG, and suicidality assessed by the Columbia-Suicide Severity Rating Scale (C-SSRS).
The dose selection safety set included all participants who received 1 dose of Compound (1). The main study qualification safety set included all participants who received ≥1 dose of alprazolam. For the treatment phase, the randomized set included all participants who were randomized and the safety set included all participants who received ≥1 dose of Compound (1) or alprazolam. The completer set included all participants in the randomized set who completed all treatment periods, had sufficient data for evaluation of the primary endpoint, and had ≥1 observation within 2 hours of Tmax for each treatment for Drug Liking VAS scores. […] The PK set included all participants in the treatment phase who received 1 dose of Compound (1) and had 1 PK sample after dosing.

[3] = Alprazolam 1.5 mg - placebo (study validity)
[4] = Alprazolam 3 mg - placebo (study validity)

Cc1nnc2n1-c1ccc(Cl)cc1C(c1ccccc1)=NC2 [Alprazolam, alprazolam, reference compound]
Drug Liking Emax difference ([1]; Alprazolam 1.5 mg - placebo): 22.50
Overall Drug Liking Emax difference ([1]; Alprazolam 1.5 mg - placebo): 24.00
Take Drug Again Emax difference ([1]; Alprazolam 1.5 mg - placebo): 24.00
Bad Drug Effects Emax difference [1, 3]: 0.00
Good Drug Effects Emax difference [1, 3]: 49.00
High Effects Emax difference [1, 3]: 43.80
Drug Liking Emax difference ([1]; Alprazolam 3 mg - placebo): 25.52
Overall Drug Liking Emax difference ([1]; Alprazolam 3 mg - placebo): 26.00
Take Drug Again Emax difference ([1]; Alprazolam 3 mg - placebo): 29.00
Bad Drug Effects Emax difference [1, 4]: 1.00
Good Drug Effects Emax difference [1, 4]: 53.47
High Effects Emax difference [1, 4]: 51.65
Drug Similarity: Placebo Similarity median score ([1]; all dosages, 12 hours postdose): zero
Drug Similarity: Benzodiazepines Similarity median score ([1]; alprazolam 1.5 mg): 92.5
Drug Similarity: Opioids Similarity median score ([1]; alprazolam 3 mg): 40.0
Back pain (TEAE) ([2]; Alprazolam 1.5 mg (n = 71)): 0 n
Confusional state (TEAE) ([2]; Alprazolam 1.5 mg (n = 71)): 0 n
Fine motor skill dysfunction (TEAE) ([2]; Alprazolam 1.5 mg (n = 71)): 0 n
Hiccups (TEAE) ([2]; Alprazolam 1.5 mg (n = 71)): 0 n
Irritability (TEAE) ([2]; Alprazolam 1.5 mg (n = 71)): 0 n
Swelling face (TEAE) ([2]; Alprazolam 1.5 mg (n = 71)): 0 n
Tremor (TEAE) ([2]; Alprazolam 1.5 mg (n = 71)): 0 n
Feeling drunk (TEAE) ([2]; Alprazolam 3 mg (n = 66)): 0 n
Fine motor skill dysfunction (TEAE) ([2]; Alprazolam 3 mg (n = 66)): 0 n
Irritability (TEAE) ([2]; Alprazolam 3 mg (n = 66)): 0 n
Swelling face (TEAE) ([2]; Alprazolam 3 mg (n = 66)): 0 n
Tremor (TEAE) ([2]; Alprazolam 3 mg (n = 66)): 0 n
Upper respiratory tract infection (TEAE) ([2]; Alprazolam 3 mg (n = 66)): 0 n
